According to patent US12600740B2, “Fluorinated N-acetyl glucosamine analogs and xylose derivatives” (UTI Limited Partnership, priority 2018, dated 2026):
“Also recorded” adds a separate entry of the source.

Legend:
[1] = tested on: intact 4-sulfated chondroitin sulfate sidechains (2H6); experiment: Western blot of astrocyte conditioned medium, 2H6 (intact chondroitin-4-sulfate); format: cell-based, mouse; conditions: astrocyte conditioned media
Description: Astrocytes are major producers of CSPGs following injury in the CNS [Jones, L. L., Margolis, R. U. & Tuszynski, M. H. The chondroitin sulfate proteoglycans neurocan, brevican, phosphacan, and versican are differentially regulated following spinal cord injury. Experimental Neurology 182, 399-411 (2003); Tang, X., Davies, J. E. & Davies, S. J. Changes in distribution, cell associations, and protein expression levels of NG2, neurocan, phosphacan, brevican, versican V2, and tenascin-C during acute to chronic maturation of spinal cord scar tissue. […] The Journal of neuroscience: the official journal of the Society for Neuroscience 20, 2427-2438 (2000); McKeon, R. J., Jurynec, M. J. & Buck, C. R. The chondroitin sulfate proteoglycans neurocan and phosphacan are expressed by reactive astrocytes in the chronic CNS glial scar. The Journal of neuroscience: the official journal of the Society for Neuroscience 19, 10778-10788 (1999); Haas, C. A., Rauch, U., Thon, N., Merten, T. & Deller, T. Entorhinal cortex lesion in adult rats induces the expression of the neuronal chondroitin sulfate proteoglycan neurocan in reactive astrocytes. The Journal of neuroscience: the official journal of the Society for Neuroscience 19, 9953-9963 (1999)] and they may help drive progression of disability in a model of progressive MS [Mayo, L. et al. Regulation of astrocyte activation by glycolipids drives chronic CNS inflammation. Nature medicine 20, 1147-1156 (2014)]. Therefore astrocytes were used as model cells to determine the ability of the sugar analogs to reduce synthesis of CSPGs. Since CSPGs are exported out of cells, the conditioned media from analog-treated astrocytes were probed by Western blots (FIG. 4). We used antibodies to both the stubs of chondroitin sulfate GAGs attached to the core protein (MAB2030) and to intact 4-sulfated chondroitin sulfate sidechains (2H6) (FIG. 4a). Particularly, we used the 2H6 antibody to label intact 4-sulfated chondroitin sulfate sidechains, and the MAB2030 antibody to detect the stubs of chondroitin sulfate GAGs attached to the core protein. […] 1998, 160 (8), 3812-3819. Poole Poole C. A.; Glant T. T.; Schofield J. R.; Chondrons from articular cartilage. (IV). Immunolocalization of proteoglycan epitopes in isolated canine tibial chondrons. J. Histochem. Cytochem. 1991, 39 (9), 1175-1187].
Astrocytes were plated in uncoated 6-well plates (3 replicate wells per treatment) at 1×10^6 cells/well in mixed glial media, and incubated at 5% CO2 and 37° C. Astrocytes were treated with compounds at 50 μM in AIM-V media for 48 hours. Media was pooled from 3 replicate wells in 15 ml 100K cutoff centricon tubes (EMD Millipore, #UFC905008), which were spun on an ultracentrifuge at 5000× g for 2 cycles of 10 minutes each. […] Total protein was quantified using a Bradford assay. […]

human neurons = experiment: Human neuron ATP luminescence assay; format: cell-based; conditions: 100 μM
Method: If the sugar compounds are to be used in neurological disorders, they should not display toxicity to neural cells. Thus, human neurons were used to test the compounds, and the ATP luminescence assay as a readout of metabolic stress and a surrogate of toxicity. Compounds were tested at a high dose of 100 μM. […] Two compounds that reduced ATP production by more than 50% were the 4-fluorinated hemiacetals that respectively bear O3,O6-diacetates 10 (Ac-4-F-GlcNAcOH) and O3,O6-dipropanoates 11 (Pr-4-F-GlcNAcOH), with the former displaying higher cytotoxicity than the latter (FIG. 6d).
Human fetal neurons were plated at 10×10^4 cells/well in 96 well plates as previously described [Vecil, G. G. et al. Interleukin-1 is a key regulator of matrix metalloproteinase-9 expression in human neurons in culture and following mouse brain trauma in vivo. Journal of Neuroscience Research 61, 212-224 (2000)]. After 24 hours neurons were treated with 100 μM compounds and incubated for 24 hours. The ATP assay (CellTiter-Glo Luminescent Cell Viability Assay; Promega, Madison, WI, USA) was then performed to test for toxicity according to manufacturer's instructions.

EAE mice = experiment: Experimental autoimmune encephalomyelitis (EAE) clinical score; format: in vivo, mouse
splenocytes [2] = experiment: Splenocyte thymidine proliferation assay (anti-CD3/anti-CD28); format: cell-based, mouse; conditions: increasing concentrations, 48 hours
splenocytes [3] = experiment: as above; format: cell-based, mouse; conditions: for Reduce T cell proliferation: activated splenocytes, significance class; for splenocyte proliferation: 25 μM, 48 hours
Method: It was assessed whether the glucosamine analogs have immunomodulatory properties on splenocytes isolated in culture. T cells within the splenocyte pool were polyclonally activated with anti-CD3 and anti-CD28 antibodies in the presence of compounds for 48 hours, and proliferation was determined by the uptake of tritiated thymidine and expressed as counts per minute. The relative change in proliferation of treated versus control splenocytes was taken in order to rank the compounds across multiple independent experiments (FIG. 8a).
The spleens were isolated from 8-10-week-old female C57BL/6 mice and homogenized. The cells were isolated by Ficoll gradient and spun for 30 min at 1,800 r.p.m. The cell suspension was removed and the cells were washed once with PBS. The cell pellet was subsequently re-suspended in Roswell Park Memorial Institute media containing 10% fetal bovine serum, 1% penicillin/streptomycin, 1% sodium pyruvate and 1% L-glutamine. Trypan blue exclusion was used to count live cells, and the cells were plated at 2.5×10^5 cells per well in a round-bottom 96-well plate and activated with 1,000 ng/ml plate-bound anti-CD3 and 1,000 ng/ml anti-CD28 suspended in media to preferentially activate T lymphocytes. Compounds were added at final concentrations of 25 μM. The cells were kept at 37° C. and 5% CO2 for 30 h, after which 10 μl/well (1 μCi per well) of 3H-thymidine was added for 18 h. The cells containing thymidine were harvested onto filter mats using a cell harvester and mats were allowed to dry for 24 h. The results were read by liquid scintillation counts.

[4] = 50 mg/kg intraperitoneal daily, day 7 to day 15

## CC(=O)NC1C(OC(C)=O)OC(COC(C)=O)C(F)(F)[C@@H]1OC(C)=O (mixture of isomers) [Compound 16, 2-Acetamido-1,3,6-tri-O-acetyl-2,4-dideoxy-4,4-difluoro-α/β-D-xylo-hexopyranose]
[1]
  total chondroitin sulfate side chains (2H6): showed evidence of reducing total chondroitin sulfate side chains
Human neurons
  cytotoxicity on neurons: no signs of toxicity in neurons
EAE mice; 25 mg/kg daily from peak clinical severity (day 15)
  EAE clinical score: significantly reduced EAE clinical severity; also recorded: did not significantly improve disability until nine days after treatment
EAE mice; 25 mg/kg intraperitoneal daily, day 7 to day 15
  sum of scores (burden of disease): significantly reduced
EAE mice; 25 mg/kg intraperitoneal daily, day 7 to day 15 (pre-onset)
  EAE clinical score: significantly lower EAE clinical scores than the control group
EAE mice; [4]
  EAE clinical score: pronounced reduction in EAE clinical severity beyond that seen for the mono-fluorinated Ac-4-F-GlcNAc
Splenocytes [2]
  dose-response to reduce proliferation in splenocytes: more effective than Ac-4-F-GlcNAc 3 at lower concentrations

## CC(=O)NC1C(OC(C)=O)OC(COC(C)=O)[C@@H](F)C1OC(C)=O (stereo partly drawn) [Compound 3, reference compound]
[1]
  total chondroitin sulfate side chains (2H6): showed evidence of reducing total chondroitin sulfate side chains
Splenocytes [3]
  Reduce T cell proliferation: **** (****p < 0.0001)

## CC(=O)N[C@H]1[C@H](OC(C)=O)O[C@H](COC(C)=O)[C@@H](OC(C)=O)[C@@H]1OC(C)=O [Compound 1, reference compound]
Splenocytes [3]
  splenocyte proliferation: reduced splenocyte proliferation
  Reduce T cell proliferation: **** (****p < 0.0001)

## CCCC(=O)OC[C@H]1OC(O)[C@H](NC(C)=O)[C@@H](OC(=O)CCC)[C@@H]1F (stereo partly drawn) [Compound 12, 2-Acetamido-3,6-di-O-butanoyl-2,4-dideoxy-4-fluoro-α/β-3-D-glucopyranose]
Splenocytes [3]
  splenocyte proliferation: reduced splenocyte proliferation
  Reduce T cell proliferation: ** (**p < 0.01)
Human neurons
  cytotoxicity on neurons: showed no cytotoxicity

## CCC(=O)OC1OC(COC(C)=O)[C@@H](F)[C@H](OC(C)=O)C1NC(C)=O (stereo partly drawn) [Compound 7, 2-Acetamido-3,6-di-O-acetyl-2,4-dideoxy-4-fluoro-1-O-propanoyl-α/β-D-glucopyranose]
[1]
  total chondroitin sulfate side chains (2H6): showed evidence of reducing total chondroitin sulfate side chains

## CC(=O)NC1C(O)OC(COC(C)=O)[C@@H](F)[C@@H]1OC(C)=O (mixture of isomers) [Compound 10]
[1]
  total chondroitin sulfate side chains (2H6): showed evidence of reducing total chondroitin sulfate side chains
Human neurons
  cytotoxicity on neurons: showed evidence of toxicity on neurons
EAE mice; [4]
  EAE clinical score: did not reduce EAE clinical score; also recorded: no significant improvement in EAE clinical score
